Experimental data taken from publication PMC4583267, “Synthesis and Evaluation of Novel Triterpene Analogues of Ursolic Acid as Potential Antidiabetic Agent” (PLoS ONE, 2015).

Target: T1, α-glucosidase from baker's yeast (Saccharomyces cerevisiae, UniProt P53341)
T1 construct: purchased
Assay: biochemical
Conditions: not given
Protocol: A stock solution of each sample, which has been dissolved in dimethylsulfoxide (DMSO) at the concentrations of 0.05 μM to 500 μM, was diluted with 0.1 M phosphate buffer solution (pH = 6.8) containing an appropriate concentration of enzyme solution (0.1 U/mL). After a 10 min pre-incubation at 37°C of the reactions, the substrate (1mM p-nitrophenyl-α-D-glucopyranoside) was added to initiate them. Then the reactions were incubated for 30 min at 37°C before they were terminated by adding 1 M Na2CO3, and their optical density values were measured at 405 nm by using a Multimodel Plate Reader (Infinite 200). Each experiment was repeated at least four times.
To determine the inhibition activity of each sample, the enzyme activity was measured at a fixed substrate concentration, in which a sequence of sample concentrations were tested. The IC50 value was calculated according to the curve fit to the sequence of concentrations versus the corresponding inhibition abilities. The results were illustrated in Table 1 and Fig 3.
The α-glucosidase inhibition assay was performed according to the method of Worawalai et al. with a slight modification. The α-glucosidase enzyme (0.1 U/mL) and substrate (1 mM p-nitrophenyl-α-D-glucopyranoside) were dissolved in 0.1 M phosphate buffer, pH 6.8. 10 μL of each synthesized analogue (1 mg/mL in DMSO) was pre-incubated with 8 μL of α-glucosidase at 37°C for 10 min. A 100 μL of substrate solution was then added to the reaction mixture, which was further incubated at 37°C for 30 min. Then, the reaction was terminated by adding 100 μL of 1 M Na2CO3 solution. Enzymatic activity was quantified by measuring the absorbance at 405 nm with a use of a Multimodel Plate Reader (Infinite 200). The percentage of inhibition was calculated by using [(A 0-A 1)/A 0]×100%, where A 0 was the absorbance without the sample, and A 1 was the absorbance with the sample. The IC50 value was determined from a plot of the percentage of inhibition versus the sample concentration.

T1 sequence (P53341 whole entry): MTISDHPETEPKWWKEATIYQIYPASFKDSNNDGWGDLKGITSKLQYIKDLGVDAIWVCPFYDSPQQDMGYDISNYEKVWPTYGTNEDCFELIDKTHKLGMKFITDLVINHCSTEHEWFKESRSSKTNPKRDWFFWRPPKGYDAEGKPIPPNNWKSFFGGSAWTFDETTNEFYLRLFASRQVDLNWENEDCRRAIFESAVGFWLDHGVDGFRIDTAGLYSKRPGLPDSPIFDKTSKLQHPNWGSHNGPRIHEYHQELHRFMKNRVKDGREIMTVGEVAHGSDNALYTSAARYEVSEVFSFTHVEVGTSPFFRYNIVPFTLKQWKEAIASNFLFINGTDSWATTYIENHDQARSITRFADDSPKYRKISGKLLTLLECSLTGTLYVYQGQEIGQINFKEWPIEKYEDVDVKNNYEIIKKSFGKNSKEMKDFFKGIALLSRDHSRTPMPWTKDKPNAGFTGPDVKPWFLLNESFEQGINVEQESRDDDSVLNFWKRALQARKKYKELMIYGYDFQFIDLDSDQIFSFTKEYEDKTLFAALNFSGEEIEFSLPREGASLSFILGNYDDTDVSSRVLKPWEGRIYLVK

Question: With `C[C@H]1[C@H](C)CC[C@]2(C(=O)O)CC[C@]3(C)C(=CC[C@@H]4[C@@]5(C)CC[C@H](O)C(C)(C)[C@@H]5CC[C@]43C)[C@H]12` [Analogue 1, 3β-hydroxy-urs-12-en-28-oic acid, reference compound] as the compound, how does the IC50 read?
Answer: 5.08 ± 0.7 µM

Question: For `C[C@@H]1CC[C@]2(C(=O)O)CC[C@]3(C)C(=CCC4[C@@]5(C)CCC(=O)C(C)(C)C5CC[C@]43C)C2[C@H]1C` (stereo partly shown) [Analogue 11, 3-Oxo-urs-12-en-28-oic acid], which IC50 is on record?
Answer: 2.47 µM

Same assay, conditions: Table 1; read-out: Observed pIC50 (converted)

Question: For `COc1ccc(NC(=O)[C@]23CC[C@@H](C)[C@H](C)C2C2=CCC4[C@@]5(C)CC[C@H](OC(C)=O)C(C)(C)C5CC[C@@]4(C)[C@]2(C)CC3)cc1` (stereo partly drawn) [Analogue 10a, N-[3β-acetoxy-urs-12-en-28-oyl]-p-methoxyamiline], which IC50 is on record?
Answer: 2.01 µM

Question: Which IC50 does the source give for `C[C@@H]1CC[C@]2(C(=O)Nc3ccc(F)cc3)CC[C@]3(C)C(=CCC4[C@@]5(C)CC[C@H](O)C(C)(C)C5CC[C@]43C)C2[C@H]1C` (stereo partly drawn) [Analogue 7b, N-[3β-Hydroxy-urs-12-en-28-oyl]-p-fluoroaniline] here?
Answer: 1.67 µM

Question: Which IC50 does the source give for `C[C@@H]1CC[C@]2(C(=O)Nc3ccccc3Cl)CC[C@]3(C)C(=CCC4[C@@]5(C)CC[C@H](O)C(C)(C)C5CC[C@]43C)C2[C@H]1C` (stereo partly drawn) [Analogue 5b, N-[3β-Hydroxy-urs-12-en-28-oyl]-o-chloroaniline] here?
Answer: 1.31 µM

Question: For `C[C@@H]1CC[C@]2(C(=O)Nc3ccc(Cl)cc3)CC[C@]3(C)C(=CCC4[C@@]5(C)CC[C@H](O)C(C)(C)C5CC[C@]43C)C2[C@H]1C` (stereo partly drawn) [Analogue 8b, N-[3β-Hydroxy-urs-12-en-28-oyl]-p-chloroaniline], which IC50 is on record?
Answer: 1.27 µM

Question: With `C[C@@H]1CC[C@]2(C(=O)Nc3ccccc3F)CC[C@]3(C)C(=CCC4[C@@]5(C)CC[C@H](O)C(C)(C)C5CC[C@]43C)C2[C@H]1C` (stereo partly drawn) [Analogue 4b, N-[3β-Hydroxy-urs-12-en-28-oyl]-o-fluoroaniline] as the compound, how does the IC50 read?
Answer: 1.51 µM

Question: With `C[C@@H]1CC[C@]2(C(=O)Nc3ccccc3)CC[C@]3(C)C(=CCC4[C@@]5(C)CC[C@H](O)C(C)(C)C5CC[C@]43C)C2[C@H]1C` (stereo partly drawn) [Analogue 3b, N-[3β-Hydroxy-urs-12-en-28-oyl]-aminobenzene] as the compound, how does the IC50 read?
Answer: 1.69 µM

Question: Which IC50 does the source give for `COc1ccc(NC(=O)[C@]23CC[C@@H](C)[C@H](C)C2C2=CCC4[C@@]5(C)CC[C@H](O)C(C)(C)C5CC[C@@]4(C)[C@]2(C)CC3)cc1` (stereo partly drawn) [Analogue 10b, N-[3β-Hydroxy-urs-12-en-28-oyl]-p-methoxylaniline] here?
Answer: 2.55 µM

Question: With `C[C@@H]1CC[C@]2(C(=O)Nc3ccc(Br)cc3)CC[C@]3(C)C(=CCC4[C@@]5(C)CC[C@H](O)C(C)(C)C5CC[C@]43C)C2[C@H]1C` (stereo partly drawn) [Analogue 9b, N-[3β-Hydroxy-urs-12-en-28-oyl]-p-bromoaniline] as the compound, how does the IC50 read?
Answer: 1.28 µM

Question: Which IC50 does the source give for `C[C@@H]1CC[C@]2(C(=O)Nc3ccccc3Br)CC[C@]3(C)C(=CCC4[C@@]5(C)CC[C@H](O)C(C)(C)C5CC[C@]43C)C2[C@H]1C` (stereo partly drawn) [Analogue 6b, N-[3β-Hydroxy-urs-12-en-28-oyl]-o-bromoaniline] here?
Answer: 2.56 µM

Target: T1, α-glucosidase from baker's yeast
Assay: not given
Conditions: S4 Table; analogues of previous work; cited from earlier work

Question: Which “Observed pIC50” value does the source give for `CC(=O)O[C@H]1CC[C@@]2(C)C(CC[C@]3(C)C2CC=C2C4[C@@H](C)[C@H](C)CC[C@]4(C(=O)Nc4ccc(Cl)cc4)CC[C@]23C)C1(C)C` (stereo partly shown) [Analogue 8a] here?
Answer: 5.489

Question: For `CC(=O)O[C@H]1CC[C@@]2(C)C(CC[C@]3(C)C2CC=C2C4[C@@H](C)[C@H](C)CC[C@]4(C(=O)Nc4ccccc4Br)CC[C@]23C)C1(C)C` (stereo partly shown) [Analogue 6a], which “Observed pIC50” value is on record?
Answer: 4.954

Question: Which “Observed pIC50” value does the source give for `CC(=O)O[C@H]1CC[C@@]2(C)C(CC[C@]3(C)C2CC=C2C4[C@@H](C)[C@H](C)CC[C@]4(C(=O)O)CC[C@]23C)C1(C)C` (stereo partly shown) [Analogue 2] here?
Answer: 5.278

Question: For `CC(=O)O[C@H]1CC[C@@]2(C)C(CC[C@]3(C)C2CC=C2C4[C@@H](C)[C@H](C)CC[C@]4(C(=O)Nc4ccc(Br)cc4)CC[C@]23C)C1(C)C` (stereo partly shown) [Analogue 9a], which “Observed pIC50” value is on record?
Answer: 5.030

Question: With `CC(=O)O[C@H]1CC[C@@]2(C)C(CC[C@]3(C)C2CC=C2C4[C@@H](C)[C@H](C)CC[C@]4(C(=O)Nc4ccccc4F)CC[C@]23C)C1(C)C` (stereo partly shown) [Analogue 4a] as the compound, how does the “Observed pIC50” value read?
Answer: 4.848

Question: With `CC(=O)O[C@H]1CC[C@@]2(C)C(CC[C@]3(C)C2CC=C2C4[C@@H](C)[C@H](C)CC[C@]4(C(=O)Nc4ccccc4Cl)CC[C@]23C)C1(C)C` (stereo partly shown) [Analogue 5a] as the compound, how does the “Observed pIC50” value read?
Answer: 4.481

Question: Which “Observed pIC50” value does the source give for `CC(=O)O[C@H]1CC[C@@]2(C)C(CC[C@]3(C)C2CC=C2C4[C@@H](C)[C@H](C)CC[C@]4(C(=O)Nc4ccc(F)cc4)CC[C@]23C)C1(C)C` (stereo partly shown) [Analogue 7a] here?
Answer: 5.185

Question: For `CC(=O)O[C@H]1CC[C@@]2(C)C(CC[C@]3(C)C2CC=C2C4[C@@H](C)[C@H](C)CC[C@]4(C(=O)Nc4ccccc4)CC[C@]23C)C1(C)C` (stereo partly shown) [Analogue 3a], which “Observed pIC50” value is on record?
Answer: 5.249

Same assay, conditions: values of earlier work; cited from earlier work

Question: For `CC(=O)O[C@H]1CC[C@@]2(C)C(CC[C@]3(C)C2CC=C2C4[C@@H](C)[C@H](C)CC[C@]4(C(=O)Nc4ccc(Cl)cc4)CC[C@]23C)C1(C)C` (stereo partly shown) [Analogue 8a], which IC50 is on record?
Answer: 3.24 ± 0.21 µM

Question: For `CC(=O)O[C@H]1CC[C@@]2(C)C(CC[C@]3(C)C2CC=C2C4[C@@H](C)[C@H](C)CC[C@]4(C(=O)O)CC[C@]23C)C1(C)C` (stereo partly shown) [Analogue 2], which IC50 is on record?
Answer: 5.27 ± 0.35 µM

Question: Which IC50 does the source give for `CC(=O)O[C@H]1CC[C@@]2(C)C(CC[C@]3(C)C2CC=C2C4[C@@H](C)[C@H](C)CC[C@]4(C(=O)Nc4ccccc4)CC[C@]23C)C1(C)C` (stereo partly shown) [Analogue 3a] here?
Answer: 5.64 ± 1.12 µM
